Series [1] is described as follows: Antiproliferative activity assessed in the RENCA murine renal cell carcinoma using the BrdU. The series is classed as functional, cell-based, Mus musculus.
A further series concerns MCF7. Put plainly: Antiproliferative activity assessed in the MCF-7 human mamma carcinoma using the BrdU. It counts as functional, cell-based.
The subject of another series is LXFL 529. Put plainly: Antiproliferative activity assessed in the LXFL529 human lung carcinoma using the BrdU. The series is classed as functional, cell-based.
For series [2], the target named is T1, Albumin (Homo sapiens, UniProt P02768). Put plainly: Second order rate constant after incubation with human serum albumin (HSA) at pH 7.4 in the absence of myristic acid.
T1 sequence (P02768 whole entry): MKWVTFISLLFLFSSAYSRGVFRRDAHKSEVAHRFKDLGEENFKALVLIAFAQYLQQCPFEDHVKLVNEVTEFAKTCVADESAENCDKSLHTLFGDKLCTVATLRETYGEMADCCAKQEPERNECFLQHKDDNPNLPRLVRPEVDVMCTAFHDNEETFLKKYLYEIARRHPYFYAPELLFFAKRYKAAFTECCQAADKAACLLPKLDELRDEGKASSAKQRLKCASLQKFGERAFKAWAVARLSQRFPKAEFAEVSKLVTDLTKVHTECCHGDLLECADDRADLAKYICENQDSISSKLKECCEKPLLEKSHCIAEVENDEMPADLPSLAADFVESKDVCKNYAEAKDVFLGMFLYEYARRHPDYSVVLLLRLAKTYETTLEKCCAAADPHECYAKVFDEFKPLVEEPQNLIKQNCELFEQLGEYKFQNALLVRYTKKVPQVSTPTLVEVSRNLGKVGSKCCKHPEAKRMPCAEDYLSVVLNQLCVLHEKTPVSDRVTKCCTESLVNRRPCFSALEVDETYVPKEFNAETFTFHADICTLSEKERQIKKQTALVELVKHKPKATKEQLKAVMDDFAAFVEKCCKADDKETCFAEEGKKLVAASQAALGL
In series [3] the target is T1, Albumin. Nature of the series: Second order rate constant after incubation with human serum albumin (HSA) at pH 7.4 in the presence of 5 equiv of myristic acid.

Each structure is given as a SMILES string.

Broadly, the IC50 is the point on the concentration scale where inhibition reaches its midpoint. A high value points to a need for much substance. Consider `COc1cccc2c1C(=O)c1c(O)c3c(c(O)c1C2=O)C[C@@](O)(/C(CO)=N/NC(=O)CCCCCN1C(=O)CCC1=O)C[C@]3(C)COC1C[C@H](N)[C@](C)(O)[C@H](C)O1` (some centres undefined), for which the IC50 in series [1] (Mus musculus) amounted to 700 nM; in the series with MCF7 (Homo sapiens, MCF7), 1100 nM; in the series on LXFL 529 (Homo sapiens, LXFL 529), 500 nM.
On to `COc1cccc2c1C(=O)c1c(O)c3c(c(O)c1C2=O)C[C@@](O)(/C(CO)=N/NC(=O)CCCN1C(=O)C=CC1=O)C[C@]3(C)COC1C[C@H](N)[C@](C)(O)[C@H](C)O1.Cl` (some centres undefined), for which the k2 stood at 25.17 M⁻¹ s⁻¹ at Albumin [2] and 19 M⁻¹ s⁻¹ at Albumin [3].
As to `COc1cccc2c1C(=O)c1c(O)c3c(c(O)c1C2=O)C[C@@](O)(/C(CO)=N/NC(=O)CCCCCCCN1C(=O)C=CC1=O)C[C@]3(C)COC1C[C@H](N)[C@](C)(O)[C@H](C)O1.Cl` (some centres undefined), the values for the k2 on Albumin [2] and at Albumin [3] were 10 M⁻¹ s⁻¹ and 16 M⁻¹ s⁻¹, respectively.
In the case of `COc1cccc2c1C(=O)c1c(O)c3c(c(O)c1C2=O)C[C@@](O)(/C(CO)=N/NC(=O)CCN1C(=O)C=CC1=O)C[C@]3(C)COC1C[C@H](N)[C@](C)(O)[C@H](C)O1.Cl` (some centres undefined), the k2 on Albumin [2] came out at 23.83 M⁻¹ s⁻¹; on Albumin [3], 17.83 M⁻¹ s⁻¹.
`COc1cccc2c1C(=O)c1c(O)c3c(c(O)c1C2=O)C[C@@](O)(/C(CO)=N/NC(=O)CCCCCN1C(=O)C=CC1=O)C[C@]3(C)COC1C[C@H](N)[C@](C)(O)[C@H](C)O1` (stereo in doubt): the half-maximal inhibitory concentration (IC50) in series [1] (Mus musculus) was 900 nM; in the series on MCF7 (Homo sapiens, MCF7) it was 1000 nM; in the series on LXFL 529 (Homo sapiens, LXFL 529) it was 400 nM.
Turning to `COc1cccc2c1C(=O)c1c(O)c3c(c(O)c1C2=O)C[C@@](O)(/C(CO)=N/NC(=O)CCCCCN1C(=O)C=CC1=O)C[C@]3(C)COC1C[C@H](N)[C@](C)(O)[C@H](C)O1.Cl` (stereo in doubt; 3), the k2 at Albumin [2] worked out at 17.33 M⁻¹ s⁻¹; at Albumin [3], 37.5 M⁻¹ s⁻¹. Further, the values for the half-maximal inhibitory concentration (IC50) (in series [1]; with MCF7 (mcf7); with LXFL 529 (lxfl 529)) were 1000 nM, 1100 nM and 500 nM, respectively.
Turning to `COc1cccc2c1C(=O)c1c(O)c3c(c(O)c1C2=O)C[C@@](O)(C(=O)CO)C[C@@H]3O[C@H]1C[C@H](N)[C@H](O)[C@H](C)O1` [DOXORUBICIN], the IC50 in the series with MCF7 (Homo sapiens, MCF7) was 40 nM; in the series on LXFL 529 (Homo sapiens, LXFL 529), 40 nM.

Values taken from ChEMBL document CHEMBL1135677 (J Med Chem, 2002).
